BigSolDB 2.1

Settings: 298.2 K

O=C(O)c1cccc([N+](=O)[O-])c1
Settings	solubility (mole fraction)
in 1,4-dioxane	0.193
in 2-methyl-1-butanol	0.11
in 2-methyl-1-pentanol	0.134
in 2-pentanol	0.176
in THF	0.36
in dibutyl ether	0.0346
in diethyl ether	0.127
in diisopropyl ether	0.0591
in ethanol	0.175
in ethyl acetate	0.138
in isobutanol	0.113
in isopentanol	0.145
in isopropanol	0.17
in methanol	0.211
in methyl acetate	0.147
in n-butanol	0.146
in n-butyl acetate	0.108
in n-decanol	0.139
in n-heptanol	0.136
in n-hexanol	0.139
in n-octanol	0.144
in n-pentanol	0.143
in n-propanol	0.149
in propylene carbonate	0.0834
in sec-butanol	0.188
in tert-butanol	0.217
